Read-outs that look alike come from different tables or passages of the source. *1 amine or outer side, *2 acyl side, *3 side chain or, on linkers, in order; H or OH if unused. Where a SMILES comes first, the peptide text is derived from it. [ ]: non-standard residue; d: D form. The star is where a group is joined. Oic = O=C(O)[C@@H]1C[C@@H]2CCCC[C@@H]2N1; NH(1S-phenylethyl) = C[C@H](N*)c1ccccc1; X2 = CCC[C@H](N[*:1])C(=O)C(=O)[*:2]; Isopropoxycarbonyl = CC(C)OC(=O)*; Pyrazinecarbonyl = O=C(c1cnccn1)*; X1 = CCCC(N[*:1])C(=O)C(=O)[*:2]; Chg = N[C@H](C(=O)O)C1CCCCC1; Tle = CC(C)(C)[C@H](N)C(=O)O; Dap = NC[C@H](N)C(=O)O; NHcPr = C1CC1N*; Moc = COC(=O)*
What was measured:
[1] = target: HCV NS3-NS4A protease (tNS3 with KK4A) (Hepatitis C virus genotype 1a, UniProt P27958); assay: HCV Ki assay (HPLC microbore separation of 5AB substrate and products); format: biochemical
Protocol: HPLC Microbore Method for Separation of 5AB Substrate and Products
• Substrate: • NH2-Glu-Asp-Val-Val-(alpha)Abu-Cys-Ser-Met-Ser-Tyr-COOH
A stock solution of 20 mM 5AB (or concentration of your choice) was made in DMSO w/ 0.2M DTT. This was stored in aliquots at −20 C.
Buffer: 50 mM HEPES, pH 7.8; 20% glycerol; 100 mM NaCl
Total assay volume was 100 μL
The buffer, KK4A, DTT, and tNS3 were combined; distributed 78 μL each into wells of 96 well plate. This was incubated at 30 C for ˜5–10 min.
2.5 μL of appropriate concentration of test compound was dissolved in DMSO (DMSO only for control) and added to each well. This was incubated at room temperature for 15 min.
Initiated reaction by addition of 20 μL of 250 μM 5AB substrate (25 μM concentration is equivalent or slightly lower than the Km for 5AB).
Incubated for 20 min at 30 C.
Terminated reaction by addition of 25 μL of 10% TFA
Transferred 120 μL aliquots to HPLC vials
Separated SMSY product from substrate and KK4A by the following method:
Microbore Separation Method:
Instrumentation: Agilent 1100
• Degasser G1322A • Binary pump G1312A • Autosampler G1313A • Column thermostated chamber G1316A • Diode array detector G1315A Column:
Phenomenex Jupiter; 5 micron C18; 300 angstroms; 150×2 mm; P/O 00F-4053-B0 • Column thermostat: 40 C • Injection volume: 100 μL • Solvent A=HPLC grade water+0.1% TFA • Solvent B=HPLC grade acetonitrile+0.1% TFA
• Stop time: 17 min • Post-run time: 10 min.

[2] = tested on: Cells containing hepatitis C virus (HCV) replicon; assay: HCV replicon cell assay (Taqman RT-PCR of HCV RNA); format: cell-based
Protocol: HCV Replicon Cell Assay Protocol
Cells containing hepatitis C virus (HCV) replicon were maintained in DMEM containing 10% fetal bovine serum (FBS), 0.25 mg per ml of G418, with appropriate supplements (media A).
On day 1, replicon cell monolayer was treated with a trypsin:EDTA mixture, removed, and then media A was diluted into a final concentration of 100,000 cells per ml wit. 10,000 cells in 100 ul were plated into each well of a 96-well tissue culture plate, and cultured overnight in a tissue culture incubator at 37° C.
On day 2, compounds (in 100% DMSO) were serially diluted into DMEM containing 2% FBS, 0.5% DMSO, with appropriate supplements (media B). The final concentration of DMSO was maintained at 0.5% throughout the dilution series.
Media on the replicon cell monolayer was removed, and then media B containing various concentrations of compounds was added. Media B without any compound was added to other wells as no compound controls.
Cells were incubated with compound or 0.5% DMSO in media B for 48 hours in a tissue culture incubator at 37° C. At the end of the 48-hour incubation, the media was removed, and the replicon cell monolayer was washed once with PBS and stored at −80° C. prior to RNA extraction.
Culture plates with treated replicon cell monolayers were thawed, and a fixed amount of another RNA virus, such as Bovine Viral Diarrhea Virus (BVDV) was added to cells in each well. RNA extraction reagents (such as reagents from RNeasy kits) were added to the cells immediately to avoid degradation of RNA. Total RNA was extracted according the instruction of manufacturer with modification to improve extraction efficiency and consistency. Finally, total cellular RNA, including HCV replicon RNA, was eluted and stored at −80° C. until further processing.
A Taqman real-time RT-PCR quantification assay was set up with two sets of specific primers and probe. One was for HCV and the other was for BVDV. Total RNA extractants from treated HCV replicon cells was added to the PCR reactions for quantification of both HCV and BVDV RNA in the same PCR well. Experimental failure was flagged and rejected based on the level of BVDV RNA in each well. The level of HCV RNA in each well was calculated according to a standard curve run in the same PCR plate. The percentage of inhibition or decrease of HCV RNA level due to compound treatment was calculated using the DMSO or no compound control as 0% of inhibition. The IC50 (concentration at which 50% inhibition of HCV RNA level is observed) was calculated from the titration curve of any given compound.

[3] = 50% inhibition of HCV RNA level, 48-hour incubation, HCV replicon cells, read-out: IC50

Chain of HCV NS3-NS4A protease (tNS3 with KK4A) (P27958 1027-1208): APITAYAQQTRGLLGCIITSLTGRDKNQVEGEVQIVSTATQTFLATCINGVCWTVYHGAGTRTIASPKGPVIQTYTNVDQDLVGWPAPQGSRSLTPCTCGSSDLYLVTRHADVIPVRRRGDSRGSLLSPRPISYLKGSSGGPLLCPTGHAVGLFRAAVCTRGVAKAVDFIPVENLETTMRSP

Compound | Ki [1] [nM] | IC50 [2, 3] [nM] | further results
CCCC(NC(=O)[C@@H]1C[C@@H]2CCCC[C@@H]2N1C(=O)[C@@H](NC(=O)[C@@H](NC(=O)c1cnccn1)C(C)C)C(C)C)C(=O)C(=O)N[C@@H](Cc1ccccc1)C(=O)O (stereo partly drawn) [Compound 1a] (Pyrazinecarbonyl-VV[Oic][X1]F-OH) | < 500 |  | 
CCCC(NC(=O)[C@@H]1C[C@@H]2CCCC[C@@H]2N1C(=O)[C@@H](NC(=O)[C@@H](NC(=O)c1cnccn1)C(C)C)C(C)C)C(=O)C(=O)NC1CC1 (stereo partly drawn) [Compound 2a] | 500 to 1000 |  | 
CCCC(NC(=O)[C@@H]1C[C@@H]2CCCC[C@@H]2N1C(=O)[C@@H](NC(=O)[C@@H](NC(=O)c1cnccn1)C1CCCCC1)C(C)C)C(=O)C(=O)NC1CC1 (stereo partly drawn) [Compound 3a] | < 500 |  | IC50 ([2]; 48 h): 1000 to 5000 nM
CCCC(NC(=O)[C@@H]1C[C@@H]2CCCC[C@@H]2N1C(=O)[C@@H](NC(=O)[C@@H](NC(=O)c1cnccn1)C1CCCCC1)C(C)(C)C)C(=O)C(=O)NC1CC1 (stereo partly drawn) [Compound 4a] | < 500 | 500 to 1000 | 
CCCC(NC(=O)[C@@H]1C[C@@H]2CCCC[C@@H]2N1C(=O)[C@@H](NC(=O)[C@@H](NC(=O)[C@H](C)NC(=O)OC(C)C)C1CCCCC1)C(C)C)C(=O)C(=O)NC1CC1 (stereo partly drawn) [Compound 5a] (Isopropoxycarbonyl-A[Chg]V[Oic][X1]-NHcPr) | < 500 |  | 
CCCC(NC(=O)[C@@H]1C[C@@H]2CCCC[C@@H]2N1C(=O)[C@@H](NC(=O)[C@@H](NC(=O)[C@H](C)NC(=O)OC(C)C)C1CCCCC1)C(C)(C)C)C(=O)C(=O)NC1CC1 (stereo partly drawn) [Compound 6a] (Isopropoxycarbonyl-A[Chg][Tle][Oic][X1]-NHcPr) | < 500 |  | 
CCCC(NC(=O)[C@@H]1C[C@@H]2CCCC[C@@H]2N1C(=O)[C@@H](NC(=O)[C@@H](NC(=O)c1cnccn1)C1CCCCC1)C(C)(C)C)C(=O)C(=O)N[C@@H](C)c1ccccc1 (stereo partly drawn) [Compound 7a] | < 500 |  | 
CCCC(NC(=O)[C@@H]1C[C@@H]2CCCC[C@@H]2N1C(=O)[C@@H](NC(=O)[C@@H](NC(=O)C1CSC(=O)N1)C1CCCCC1)C(C)(C)C)C(=O)C(=O)N[C@@H](C)c1ccccc1 (stereo partly drawn) [Compound 8a] | < 500 |  | 
CCCC(NC(=O)[C@@H]1C[C@@H]2CCCC[C@@H]2N1C(=O)[C@@H](NC(=O)[C@@H](NC(=O)[C@H](CNC(=O)OC)NC(=O)OC)C1CCCCC1)C(C)(C)C)C(=O)C(=O)N[C@@H](C)c1ccccc1 (stereo partly drawn) [Compound 9a] (Moc-[Dap](Moc)[Chg][Tle][Oic][X1]-{NH(1S-phenylethyl)}) | < 500 | < 500 | 
CCC[C@H](NC(=O)[C@@H]1C[C@@H]2CCCC[C@@H]2N1C(=O)[C@@H](NC(=O)[C@@H](NC(=O)c1cnccn1)C1CCCCC1)C(C)(C)C)C(=O)C(=O)NC1CC1 [Compound 10a] | < 500 | 500 to 1000 | 
CCC[C@H](NC(=O)[C@@H]1C[C@@H]2CCCC[C@@H]2N1C(=O)[C@@H](NC(=O)[C@@H](NC(=O)c1ccc[nH]1)C1CCCCC1)C(C)(C)C)C(=O)C(=O)NC1CC1 [Compound 11a] | < 500 | < 500 | 
CCC[C@H](NC(=O)[C@@H]1C[C@@H]2CCCC[C@@H]2N1C(=O)[C@@H](NC(=O)[C@@H](NC(=O)c1cc([N+](=O)[O-])c[nH]1)C1CCCCC1)C(C)(C)C)C(=O)C(=O)NC1CC1 [Compound 12a] | < 500 | < 500 | 
CCC[C@H](NC(=O)[C@@H]1C[C@@H]2CCCC[C@@H]2N1C(=O)[C@@H](NC(=O)[C@@H](NC(=O)c1[nH]ncc1[N+](=O)[O-])C1CCCCC1)C(C)(C)C)C(=O)C(=O)NC1CC1 [Compound 13a] | < 500 | 500 to 1000 | 
CCC[C@H](NC(=O)[C@@H]1C[C@@H]2CCCC[C@@H]2N1C(=O)[C@@H](NC(=O)[C@@H](NC(=O)c1cc([N+](=O)[O-])n[nH]1)C1CCCCC1)C(C)(C)C)C(=O)C(=O)NC1CC1 [Compound 14a] | < 500 | 1000 to 5000 | 
CCC[C@H](NC(=O)[C@@H]1C[C@@H]2CCCC[C@@H]2N1C(=O)[C@@H](NC(=O)[C@@H](NC(=O)c1ccn[nH]1)C1CCCCC1)C(C)(C)C)C(=O)C(=O)NC1CC1 [Compound 15a] | < 500 | < 500 | 
CCC[C@H](NC(=O)[C@@H]1C[C@@H]2CCCC[C@@H]2N1C(=O)[C@@H](NC(=O)[C@@H](NC(=O)c1cc(C(C)(C)C)n[nH]1)C1CCCCC1)C(C)(C)C)C(=O)C(=O)NC1CC1 [Compound 16a] | < 500 | 1000 to 5000 | 
CCC[C@H](NC(=O)[C@@H]1C[C@@H]2CCCC[C@@H]2N1C(=O)[C@@H](NC(=O)[C@@H](NC(=O)c1ccnn1C)C1CCCCC1)C(C)(C)C)C(=O)C(=O)NC1CC1 [Compound 17a] | 1000 to 5000 |  | 
CCC[C@H](NC(=O)[C@@H]1C[C@@H]2CCCC[C@@H]2N1C(=O)[C@@H](NC(=O)[C@@H](NC(=O)c1nccnc1C(N)=O)C1CCCCC1)C(C)(C)C)C(=O)C(=O)NC1CC1 [Compound 28a] | < 500 |  | 
CCC[C@H](NC(=O)[C@@H]1C[C@@H]2CCCC[C@@H]2N1C(=O)[C@@H](NC(=O)[C@@H](NC(=O)c1[nH]ncc1Cl)C1CCCCC1)C(C)(C)C)C(=O)C(=O)NC1CC1 [Compound 38a] | 500 to 1000 |  | 
CCC[C@H](NC(=O)[C@@H]1C[C@@H]2CCCC[C@@H]2N1C(=O)[C@@H](NC(=O)[C@@H](NC(=O)c1cnccn1)C1CCCCC1)C(C)(C)C)C(=O)C(=O)N(C)C [Compound 50a] | 1000 to 5000 |  | 
CCC[C@H](NC(=O)[C@@H]1C[C@@H]2CCCC[C@@H]2N1C(=O)[C@@H](NC(=O)[C@@H](NC(=O)c1cnccn1)C1CCCCC1)C(C)(C)C)C(=O)C(=O)NCC(=O)N(C)C [Compound 54a] (Pyrazinecarbonyl-[Chg][Tle][Oic][X2]G-NMe2) | 1000 to 5000 |  | 
CCCC(NC(=O)[C@@H]1C[C@@H]2CCCC[C@@H]2N1C(=O)[C@@H](NC(=O)[C@@H](NC(=O)c1cnccn1)C1CCCCC1)C(C)(C)C)B1O[C@@H]2C[C@@H]3C[C@@H](C3(C)C)[C@]2(C)O1 (stereo partly drawn) [Compound 56a] |  |  | Ki ([1]; 25 nM tNS3, 25 μM KK4A, 25 μM 5AB substrate, 20 min at 30 C, read-out: Ki): < 500 nM
CCC[C@H](NC(=O)[C@@H]1C[C@@H]2CCCC[C@@H]2N1C(=O)[C@@H](NC(=O)[C@H](C1CCCCC1)N1C(=O)c2ccccc2C1=O)C(C)(C)C)C(=O)C(=O)NC1CC1 [Compound 57a] | < 500 |  | 
CCC[C@H](NC(=O)[C@@H]1C[C@@H]2CCCC[C@@H]2N1C(=O)[C@@H](NC(=O)[C@@H](NC(=O)c1[nH]c(C)c(C)c1C(C)=O)C(C)C)C(C)(C)C)C(=O)C(=O)NC1CC1 [Compound 58a] | < 500 |  | 
CCC[C@H](NC(=O)[C@@H]1C[C@@H]2CCCC[C@@H]2N1C(=O)[C@@H](NC(=O)[C@@H](NC(=O)c1[nH]c(C)c(C)c1C(C)=O)C(C)CC)C(C)(C)C)C(=O)C(=O)NC1CC1 (stereo partly drawn) [Compound 59a] | < 500 |  | 
CCC[C@H](NC(=O)[C@@H]1C[C@@H]2CCCC[C@@H]2N1C(=O)[C@@H](NC(=O)[C@@H](NC(=O)c1[nH]c(C)c(C)c1C(C)=O)C1CCCCC1)C(C)(C)C)C(=O)C(=O)C(C)C [Compound 62a] | 500 to 1000 |  | 

Source: patent US7273885B2, “Inhibitors of serine proteases, particularly HCV NS3-NS4A protease” (Vertex Pharmaceuticals Incorporated, priority 2002, dated 2007)
